Four compounds from patent US20260008784A1 (VASTHERA CO., LTD., priority 2022, published 2026) can be followed below.

What is called EC50 is the midpoint of the concentration-response curve. Lower therefore signals an effect from little substance.

Series [1] concerns Tyr 857 phosphorylation of PDGF receptor-β (PDGFRβ) in HASMC. Kind of series: Immunoblot of PDGF-mediated signaling in PrxII knock-down HASMC. The series is classed as cell-based, human. The conditions noted are these: for Effect on phosphorylation of Tyr 857 on PDGFR: HASMC depleted of PrxII expression, FIG. 2. The gist of the method: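 HASMC and PASMC with PrxII knocked down by siRNA were treated with test compounds and PDGF-stimulated. Lysates in Hepes pH 7.0/Triton X-100 buffer with phosphatase and protease inhibitors were immunoblotted with anti-phospho-Tyr 857 PDGFRβ antibody. Membranes were stripped and reprobed.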

In series [2] the test system is Tyr 1175 phosphorylation of VEGF receptor-2 (VEGFR2) in HAEC. Kind of series: Immunoblot of VEGF-mediated signaling in PrxII knock-down HAEC. It is filed as cell-based, human. Conditions: for Effect on phosphorylation of Tyr 1175 on VEGFR2: HAECs depleted of PrxII expression, FIG. 5. (In western blotting, separated proteins are transferred to a membrane and probed.)

The nature of series [3]: Measurement of redox potential (DTT redox buffers, HPLC). It is filed as physicochemical. Conditions: DTT(Red)/DTT(Ox) redox buffers, 3 h, 30° C., 50% reduction of test compound.
Series [4] relates to human aortic endothelial cell (HAEC). The series can be described thus: VEGF-induced proliferation assay, HAEC (PrxII siRNA). The conditions noted are these: for Degree of HAEC proliferation: VEGF-A 25 ng/mL, percent of untreated control; for EC50: Homo sapiens, Endothelial cell, effective concentration increasing cell proliferation by 50%, VEGF-stimulated. The series is classed as cell-based.

Another series relates to NIH-3T3 cells. The series can be described thus: Intracellular H2O2-eliminating activity (CM-H2DCF-DA fluorescence). It is filed as cell-based. The conditions noted are these: Mus musculus, NIH3T3, glucose oxidase, concentration at 50% reduction of intracellular H2O2. Here is the method: The activity of test compounds in present invention to eliminate intracellular H2O2 was measured as follows. NIH-3T3 cells (ATCC) were seeded in a 35-mm culture dish at 2×10^5 cells/well. After culture for 24 hours, cells were serum-starved with phenol red free-basal DMEM containing 0.5% FBS for 6 h. Starved NIH 3T3 cells were pretreated with compounds diluted with phenol red free-basal DMEM at concentrations ([…]) for 30 min, followed by treatment with 20 mU of glucose oxidase (Gox) for 30 min. A reactive oxygen species-sensitive fluorescence dye, carboxymethyl-dichlorofluorescein-diacetate (CM-H2DCF-DA), which was prepared in 1 mM DMSO stock and diluted 500 times in phenol red free-basal DMEM, was added to the cells and incubated for 5 min. Then, cells were quickly rinsed with basal medium. Images were taken at excitation 497 nm/emission 518 nm settings using a fluorescence microscope. Three images at 10× magnification per sample were obtained, and fluorescence intensities from 30 or more individual cells per image were averaged.
The intracellular H2O2-eliminating activity of test compounds in present invention was measured using a live-cell imaging fluorescence probe (CM-HaDCF-DA). H2O2-eliminating activity was measured depending on ascending concentrations of the test compound and expressed as the percent of activity compared to the untreated control group. EC50 represents the concentration of test compound at 50% reduction of intracellular H2O2.

Molecules are shown by their SMILES.

Protocol for in vitro: Cytotoxicity tests were performed against vascular endothelial cells, vascular smooth muscle cells and hepatocytes. After treatment with ascending concentrations of each compound, the concentration of test compound corresponding to 50% cell viability (CC50) was measured.

As to `CN1C(=O)C2CSSC1(C)C(=O)N2Cc1ccc2ccccc2n1` (stereo not shown) [Compound 5, 1,8-dimethyl-6-(quinolin-2-ylmethyl)-2,3-dithia-6,8-diazabicyclo[3.2.2]nonane-7,9-dione], the CC50 in the series “in vitro” is more than 500000 nM. For the same compound, the “Effect on phosphorylation of Tyr 857 on PDGFR” value (shortened to “Effect … on PDGFR”) in series [1] is on record as “strongly abolish the phosphorylation”. For the same compound, the “Effect on phosphorylation of Tyr 1175 on VEGFR2” value (shortened to “Effect … on VEGFR2”) in series [2] is on record as “strongly abolish the phosphorylation”. The “Midpoint redox potential (E m)” value in series [3] was −290.3 mV. In addition, the “Degree of HAEC proliferation” value was 112.2% in series [4] (2.5 nM); 129.7% in series [4] (5 nM); 165.6% in series [4] (10 nM); 191.6% in series [4] (25 nM); 172.7% in series [4] (50 nM); 180.1% in series [4] (100 nM). Moreover, the values for the EC50 (in series [4]; in the series on NIH-3T3 cells) were 5.31 nM and 7.77 nM, respectively.

`O=C1C2CSSC3(COCCN13)C(=O)N2Cc1ccccc1` (stereo not shown) [Compound 8, 12-benzyltetrahydro-5H,10H-4,10a-(epiminomethano)[1,4]oxazino[3,4-c][1,2,4]dithia zepine-5,11-dione] had a CC50 in the series “in vitro” of 312000 nM. In addition, in series [3], the “Midpoint redox potential (E m)” value is reported as −272.6 mV. For the same compound, the “Degree of HAEC proliferation” value is 107.3% in series [4] (2.5 nM); 147.3% in series [4] (5 nM); 186.3% in series [4] (10 nM); 204.8% in series [4] (25 nM); 157.0% in series [4] (50 nM); 161.6% in series [4] (100 nM). Also, the EC50 in series [4] stood at 5.04 nM; in the series on NIH-3T3 cells, 6.57 nM.

`CN1C(=O)C2(C)SSCC1C(=O)N2C` (stereo not shown) [Compound 1, 1,6,8-trimethyl-2,3-dithia-6,8-diazabicyclo[3.2.2]nonane-7,9-dione] registered a CC50 in the series “in vitro” of 230000 nM. The “Effect … on PDGFR” value in series [1] was “strongly abolish the phosphorylation”. Besides, the “Concentrations at which phosphorylation of Tyr 857 on PDGFRβ is significantly reduced” value in series [1] (HASMCs, PrxII knock-down, FIG. 1) was “above 2.5 nM”. Moreover, the “Effect … on VEGFR2” value in series [2] is given as “strongly abolish the phosphorylation”. Moreover, in series [2] (HAECs, PrxII knock-down, FIG. 4), the “Concentrations at which phosphorylation of Tyr 1175 on VEGFR2 is significantly reduced” value is given as “above 2.5 nM”. The “Midpoint redox potential (E m)” value in series [3] was −285.25 mV. In addition, the “Degree of HAEC proliferation” value in series [4] (2.5 nM) turned out to be 113.8%; in series [4] (5 nM), 143.7%; in series [4] (10 nM), 162.9%; in series [4] (25 nM), 187.8%; in series [4] (50 nM) it was 164.7%; in series [4] (100 nM), 170.2%. The values for the EC50 (in series [4]; in the series on NIH-3T3 cells) were 4.93 nM and 8.25 nM, respectively.

Take `CCN1C(=O)C2(C)SSCC1C(=O)N2CC` (stereo not shown) [Compound 20, 6,8-diethyl-1-methyl-2,3-dithia-6,8-diazabicyclo[3.2.2]nonane-7,9-dione]: the “Effect … on PDGFR” value in series [1] is reported as “strongly abolish the phosphorylation”. Besides, the “Effect … on VEGFR2” value in series [2] is reported as “strongly abolish the phosphorylation”. The “Midpoint redox potential (E m)” value in series [3] was −296.79 mV. Moreover, the “Degree of HAEC proliferation” value amounted to 116.4% in series [4] (2.5 nM); 120.3% in series [4] (5 nM); 136.3% in series [4] (10 nM); 155.9% in series [4] (25 nM); 169.5% in series [4] (50 nM); 187.6% in series [4] (100 nM). In series [4], this compound yielded a half-maximal effective concentration (EC50) of 10.2 nM.
